Laboratory results taken from US20240108725A1, “METHOD FOR TREATING CANCER AND SYSTEM FOR SAME” (OTSUKA MEDICAL DEVICES CO., LTD, priority 2020, published 2024).
Counter-ions that a name gives are not always drawn.

Columns and labels:
C6 cells [1] = assay: Rate of dead cells in PDT-treated or anti-cancer agent-treated C6 cells (Annexin V/PI), Example 2; type: cell-based, rat; settings: C6 cells cultured 48 hours with MTX 20 μg/mL, DOX 75 μg/mL or EPI 62.5 μg/mL
Method: C6 cells were cultured in 2.5% FBS/F-12K medium supplemented with 5-ALA to a final concentration of 1 mM in a 5% CO2 incubator at 37° C. for 24 hours. After the culture, the cells were removed with 0.25% trypsin-EDTA solution, and the collected cells were adjusted to 2×10^7 cells/mL with PBS. The cell suspension thus prepared was injected into a Tygon tube (inner diameter: 0.79 mm), wrapped around a light irradiator (Otsuka Electronics Co., Ltd.), and irradiated with light having a wavelength of 630 nm and an irradiation energy density of 7.5 J/cm^2 (illuminance of 124.5 mW/cm^2 for 1 minute). The treated cells were pooled and the irradiation was repeated until the required dose was obtained. The irradiated cells were divided into three equal parts, and one was administered to F344 rats (8 week-old at the start of study, male, Charles River Laboratories Japan Inc.) at 0.5 mL (1×10^7 cells) per animal from the tail vein under isoflurane anesthesia (PDT iv group, 3 animals). Another one was centrifuged to remove its culture supernatant and adjusted to 2×10^7 cells/mL with PBS, and the cell suspension thus prepared was administered at 0.5 mL (1×10^7 cells) per animal from the tail vein in the same manner as the PDT iv group (PDT-cell iv group, 3 animals). The cells of the remaining one of the three equal parts were suspended in 2.5% FBS/F-12K medium and cultured in a 5% CO2 incubator at 37° C. for 24 hours, and then collected and adjusted to 2×10^7 cells/mL with PBS, and the cell suspension thus prepared was administered at 0.5 mL (1×10^7 cells) per animal from the tail vein in the same manner as other groups (PDT/24 h-cell iv group, 3 animals). Intravenous administration of these PDT-treated cells was performed a total of 3 times (Day−15, −8, −1). […]
The PDT-treated or anti-cancer agent-treated C6 cells were stained with FITC-labeled Annexin V and PI by using the FITC Annexin V Apoptosis Detection Kit I. After that, the rate of dead cells was analyzed with a flow cytometer.

C6 cells [2] = assay: Tumor volume after subcutaneous transplantation of C6 cells in rats given PDT-treated or anti-cancer agent-treated cells intravenously, Example 2; type: in vivo, rat; settings: intravenous administration of treated C6 cells to rats
Method: C6 cells were cultured in 2.5% FBS/F-12K medium supplemented with 5-ALA to a final concentration of 1 mM in a 5% CO2 incubator at 37° C. for 24 hours. After the culture, the cells were removed with 0.25% trypsin-EDTA solution, and the collected cells were adjusted to 2×10^7 cells/mL with PBS. The cell suspension thus prepared was injected into a Tygon tube (inner diameter: 0.79 mm), wrapped around a light irradiator (Otsuka Electronics Co., Ltd.), and irradiated with light having a wavelength of 630 nm and an irradiation energy density of 7.5 J/cm^2 (illuminance of 124.5 mW/cm^2 for 1 minute). The treated cells were pooled and the irradiation was repeated until the required dose was obtained. The irradiated cells were divided into three equal parts, and one was administered to F344 rats (8 week-old at the start of study, male, Charles River Laboratories Japan Inc.) at 0.5 mL (1×10^7 cells) per animal from the tail vein under isoflurane anesthesia (PDT iv group, 3 animals). […]
On the 4th, 6th, 8th and 10th days after preparation of the cancer-bearing rats (Day 4, 6, 8, 10), the major axis and the minor axis of the tumor were measured by using a caliper, and the tumor volume was calculated according to the following formula. […]

[3] = subcutaneous administration; had been reported; cited from earlier work

Row | SMILES | living cells (Annexin V−/PI−) (C6 cells [1]) [%] | antitumor immunity (C6 cells [2]) | immunostimulatory effects [3]
1 | COc1cccc2c1C(=O)c1c(O)c3c(c(O)c1C2=O)C[C@@](O)(C(=O)CO)C[C@@H]3O[C@H]1C[C@H](N)[C@H](O)[C@H](C)O1 [DOX, doxorubicin hydrochloride] | 5 | not induced | immunostimulatory effects
2 | COc1cccc2c1C(=O)c1c(O)c3c(c(O)c1C2=O)C[C@@](O)(C(=O)CO)C[C@@H]3O[C@H]1C[C@H](N)[C@@H](O)[C@H](C)O1 [EPI, epirubicin hydrochloride] | 5 |  | 
3 | O=C1c2c(O)ccc(O)c2C(=O)c2c(NCCNCCO)ccc(NCCNCCO)c21 [MTX, mitoxantrone dihydrochloride] | 1 |  | 
